{"source": "ChEMBL document CHEMBL4823315", "about": "(Bioorg Med Chem Lett, 2021)", "key": {"Cytochrome P450 3A4": {"target": "Cytochrome P450 3A4 (Homo sapiens, UniProt P08684)", "sequence (P08684 whole entry)": "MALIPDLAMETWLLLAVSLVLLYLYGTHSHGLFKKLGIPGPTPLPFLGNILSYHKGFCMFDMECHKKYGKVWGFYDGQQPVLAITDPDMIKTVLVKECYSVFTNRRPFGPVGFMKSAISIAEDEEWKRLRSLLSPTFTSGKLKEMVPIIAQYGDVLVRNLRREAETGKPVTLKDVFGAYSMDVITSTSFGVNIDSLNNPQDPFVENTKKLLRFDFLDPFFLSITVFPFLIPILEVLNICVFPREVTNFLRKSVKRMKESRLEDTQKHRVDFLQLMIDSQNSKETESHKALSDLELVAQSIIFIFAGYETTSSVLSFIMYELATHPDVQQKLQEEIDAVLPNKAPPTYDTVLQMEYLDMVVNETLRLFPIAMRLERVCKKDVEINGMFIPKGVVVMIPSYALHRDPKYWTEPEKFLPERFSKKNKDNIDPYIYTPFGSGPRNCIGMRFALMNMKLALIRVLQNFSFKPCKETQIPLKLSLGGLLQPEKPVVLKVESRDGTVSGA", "assay": "Inhibition of CYP3A4 (unknown origin)", "assay_type": "ADME"}, "[1]": {"assay": "Apparent permeability across apical to basal side in human Caco-2 cells", "assay_type": "ADME, cell-based"}, "[2]": {"assay": "Cmax in Sprague-Dawley rat at 5 mg/kg, po", "assay_type": "ADME, organism-based", "parameters": "route oral, dose 5 mg/kg", "settings": "in vivo"}, "[3]": {"assay": "AUC in Sprague-Dawley rat at 5 mg/kg, po", "assay_type": "ADME, organism-based", "parameters": "dose 5 mg/kg", "settings": "in vivo"}, "[4]": {"assay": "Inhibition of p70S6K (unknown origin)", "parameters": "species or system Homo sapiens"}, "[5]": {"target": "Serine/threonine-protein kinase AKT (Homo sapiens, UniProt P31751+Q9Y243+P31749)", "assay": "Inhibition of Akt (unknown origin)", "assay_type": "protein assay"}, "[6]": {"target": "Voltage-gated inwardly rectifying potassium channel KCNH2 (Homo sapiens, UniProt Q12809)", "sequence (Q12809 whole entry)": "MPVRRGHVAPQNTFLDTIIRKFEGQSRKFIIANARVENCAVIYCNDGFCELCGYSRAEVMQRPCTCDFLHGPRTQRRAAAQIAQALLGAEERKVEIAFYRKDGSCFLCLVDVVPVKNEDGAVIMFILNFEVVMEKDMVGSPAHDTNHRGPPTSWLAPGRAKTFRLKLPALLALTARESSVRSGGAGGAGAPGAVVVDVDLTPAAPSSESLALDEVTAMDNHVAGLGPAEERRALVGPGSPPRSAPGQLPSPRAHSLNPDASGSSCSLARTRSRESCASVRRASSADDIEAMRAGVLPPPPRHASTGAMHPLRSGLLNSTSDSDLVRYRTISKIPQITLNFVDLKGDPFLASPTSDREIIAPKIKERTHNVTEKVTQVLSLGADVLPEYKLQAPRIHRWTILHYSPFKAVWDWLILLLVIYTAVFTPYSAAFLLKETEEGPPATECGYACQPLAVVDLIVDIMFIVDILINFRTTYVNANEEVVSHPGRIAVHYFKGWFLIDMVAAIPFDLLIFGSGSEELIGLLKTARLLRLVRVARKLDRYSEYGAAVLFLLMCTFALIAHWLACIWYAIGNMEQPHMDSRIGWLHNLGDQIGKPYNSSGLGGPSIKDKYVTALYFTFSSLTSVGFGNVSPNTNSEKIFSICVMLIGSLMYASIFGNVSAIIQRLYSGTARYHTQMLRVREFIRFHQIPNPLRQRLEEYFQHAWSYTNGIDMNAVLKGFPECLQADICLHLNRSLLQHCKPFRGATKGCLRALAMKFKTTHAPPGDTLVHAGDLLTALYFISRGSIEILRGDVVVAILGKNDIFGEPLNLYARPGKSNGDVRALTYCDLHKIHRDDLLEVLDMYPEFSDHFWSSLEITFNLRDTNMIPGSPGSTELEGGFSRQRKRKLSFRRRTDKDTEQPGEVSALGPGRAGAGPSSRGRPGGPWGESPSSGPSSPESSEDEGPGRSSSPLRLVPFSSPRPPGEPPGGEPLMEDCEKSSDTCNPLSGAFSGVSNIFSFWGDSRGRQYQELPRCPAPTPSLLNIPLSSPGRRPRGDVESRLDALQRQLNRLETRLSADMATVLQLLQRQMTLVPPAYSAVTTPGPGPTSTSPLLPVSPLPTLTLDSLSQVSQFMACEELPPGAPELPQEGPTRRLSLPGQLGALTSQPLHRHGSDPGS", "assay": "Inhibition of human ERG by patch clamp assay"}, "[7]": {"assay": "Protein binding in mouse plasma assessed as unbound fraction", "assay_type": "ADME, cell-free"}, "Cytochrome P450 2B6": {"target": "T1, Cytochrome P450 2B6 (Homo sapiens, UniProt P20813)", "T1 sequence (P20813 whole entry)": "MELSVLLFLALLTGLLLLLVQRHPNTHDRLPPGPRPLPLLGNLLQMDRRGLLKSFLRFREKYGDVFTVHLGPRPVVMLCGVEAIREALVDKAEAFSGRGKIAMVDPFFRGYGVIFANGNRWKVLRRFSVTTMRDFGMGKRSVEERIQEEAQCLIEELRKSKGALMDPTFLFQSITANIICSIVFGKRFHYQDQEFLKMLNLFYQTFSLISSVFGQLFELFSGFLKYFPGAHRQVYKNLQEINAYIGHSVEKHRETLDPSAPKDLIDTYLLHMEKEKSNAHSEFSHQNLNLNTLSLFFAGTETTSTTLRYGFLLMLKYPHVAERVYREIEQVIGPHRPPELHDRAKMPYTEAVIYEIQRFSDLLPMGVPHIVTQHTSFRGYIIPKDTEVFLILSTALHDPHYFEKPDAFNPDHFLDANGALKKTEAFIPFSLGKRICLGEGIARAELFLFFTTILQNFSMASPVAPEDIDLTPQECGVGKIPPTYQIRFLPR", "assay": "Inhibition of CYP2B6 (unknown origin)", "assay_type": "ADME"}, "Cytochrome P450 2C19": {"target": "Cytochrome P450 2C19 (Homo sapiens, UniProt P33261)", "sequence (P33261 whole entry)": "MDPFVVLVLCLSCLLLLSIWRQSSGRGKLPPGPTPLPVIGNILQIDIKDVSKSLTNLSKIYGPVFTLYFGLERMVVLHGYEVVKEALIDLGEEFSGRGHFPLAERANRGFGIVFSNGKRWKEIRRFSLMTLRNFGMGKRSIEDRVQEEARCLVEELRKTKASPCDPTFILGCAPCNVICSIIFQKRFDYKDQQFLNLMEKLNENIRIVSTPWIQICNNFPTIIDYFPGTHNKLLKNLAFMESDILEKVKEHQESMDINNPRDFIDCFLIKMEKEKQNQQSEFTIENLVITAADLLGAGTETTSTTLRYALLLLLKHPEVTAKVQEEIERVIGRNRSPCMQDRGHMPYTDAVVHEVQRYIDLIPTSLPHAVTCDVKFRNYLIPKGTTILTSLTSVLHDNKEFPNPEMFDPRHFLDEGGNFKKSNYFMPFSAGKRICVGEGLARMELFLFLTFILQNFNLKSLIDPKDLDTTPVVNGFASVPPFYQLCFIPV", "assay": "Inhibition of CYP2C19 (unknown origin)", "assay_type": "ADME"}, "Cytochrome P450 2D6": {"target": "Cytochrome P450 2D6 (Homo sapiens, UniProt P10635)", "sequence (P10635 whole entry)": "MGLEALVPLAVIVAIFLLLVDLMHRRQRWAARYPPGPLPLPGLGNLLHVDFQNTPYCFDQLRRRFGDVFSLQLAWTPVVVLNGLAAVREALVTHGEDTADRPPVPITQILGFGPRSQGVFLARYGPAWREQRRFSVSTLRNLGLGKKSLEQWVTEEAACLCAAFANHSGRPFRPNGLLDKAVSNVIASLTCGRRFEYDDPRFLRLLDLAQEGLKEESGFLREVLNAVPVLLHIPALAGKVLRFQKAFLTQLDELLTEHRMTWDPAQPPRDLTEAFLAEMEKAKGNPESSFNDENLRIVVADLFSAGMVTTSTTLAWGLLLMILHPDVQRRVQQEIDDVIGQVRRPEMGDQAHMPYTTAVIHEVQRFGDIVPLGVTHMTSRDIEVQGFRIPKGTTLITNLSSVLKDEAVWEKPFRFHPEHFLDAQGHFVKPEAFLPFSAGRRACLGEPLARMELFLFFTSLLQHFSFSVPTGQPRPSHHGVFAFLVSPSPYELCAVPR", "assay": "Inhibition of CYP2D6 (unknown origin)", "assay_type": "ADME"}, "[8]": {"assay": "Intrinsic clearance in human liver microsomes", "assay_type": "ADME, Microsome", "settings": "read-out: CLH"}, "[9]": {"assay": "Intrinsic clearance in mouse liver microsomes", "assay_type": "ADME, Microsome", "settings": "read-out: CLH"}, "[10]": {"assay": "Efflux ratio of apparent permeability in human Caco-2 cells", "assay_type": "ADME, cell-based"}, "[11]": {"assay": "Thermodynamic solubility of the compound at pH 7.4", "assay_type": "physicochemical", "settings": "buffer, read-out: Therm_solubility"}, "[12]": {"assay": "Thermodynamic solubility of the compound at pH 1.2", "assay_type": "physicochemical", "settings": "buffer, read-out: Therm_solubility"}, "[13]": {"assay": "AUC in CD-1 mouse at 5 mg/kg, po", "assay_type": "ADME, organism-based", "parameters": "dose 5 mg/kg", "settings": "in vivo"}, "[14]": {"assay": "AUC in CD-1 mouse at 5 mg/kg, iv", "assay_type": "ADME, organism-based", "parameters": "dose 5 mg/kg", "settings": "in vivo"}, "[15]": {"assay": "Cmax in CD-1 mouse at 5 mg/kg, po", "assay_type": "ADME, organism-based", "parameters": "route oral, dose 5 mg/kg", "settings": "in vivo"}, "[16]": {"assay": "Cmax in CD-1 mouse at 5 mg/kg, iv", "assay_type": "ADME, organism-based", "parameters": "route intravenous, dose 5 mg/kg", "settings": "in vivo"}, "[17]": {"assay": "Clearance in CD-1 mouse at 5 mg/kg, po or 5 mg/kg, iv", "assay_type": "ADME, organism-based", "settings": "in vivo"}, "[18]": {"assay": "Oral bioavailability in CD-1 mouse at 5 mg/kg", "assay_type": "ADME, organism-based", "settings": "in vivo"}, "[19]": {"assay": "Clearance in Sprague-Dawley rat at 5 mg/kg, po or 5 mg/kg, iv", "assay_type": "ADME, organism-based", "settings": "in vivo"}, "[20]": {"assay": "Clearance in Beagle dog at 0.5 mg/kg, po or 0.2 mg/kg, iv", "assay_type": "ADME, organism-based, Canis lupus familiaris", "settings": "in vivo"}, "[21]": {"assay": "Clearance in cynomolgus monkey at 0.5 mg/kg, po or 0.2 mg/kg, iv", "assay_type": "ADME, organism-based, Macaca fascicularis", "settings": "in vivo"}, "[22]": {"assay": "Half life in Sprague-Dawley rat at 5 mg/kg, po or 5 mg/kg, iv", "assay_type": "ADME, organism-based", "settings": "in vivo"}, "[23]": {"assay": "Half life in Beagle dog at 0.5 mg/kg, po or 0.2 mg/kg, iv", "assay_type": "ADME, organism-based, Canis lupus familiaris", "settings": "in vivo"}, "[24]": {"assay": "Half life in cynomolgus monkey at 0.5 mg/kg, po or 0.2 mg/kg, iv", "assay_type": "ADME, organism-based, Macaca fascicularis", "settings": "in vivo"}, "[25]": {"assay": "Oral bioavailability in Sprague-Dawley rat at 5 mg/kg", "assay_type": "ADME, organism-based", "settings": "in vivo"}, "[26]": {"assay": "Oral bioavailability in Beagle dog at 0.5 mg/kg", "assay_type": "ADME, organism-based, Canis lupus familiaris", "settings": "in vivo"}, "[27]": {"assay": "AUC in cynomolgus monkey at 0.5 mg/kg, po", "assay_type": "ADME, organism-based, Macaca fascicularis", "parameters": "dose 0.5 mg/kg", "settings": "in vivo"}, "[28]": {"assay": "Cmax in cynomolgus monkey at 0.5 mg/kg, po", "assay_type": "ADME, organism-based, Macaca fascicularis", "parameters": "route oral, dose 0.5 mg/kg", "settings": "in vivo"}, "[29]": {"assay": "Toxicity in mouse xenografted with human MDA-MB-436 cells assessed as loss of body weight at 200 mg/kg, po administered qd measured after 15 days", "assay_type": "organism-based", "settings": "in vivo, 360 h, time 15 day"}, "[30]": {"assay": "Toxicity in mouse xenografted with human MDA-MB-436 cells assessed as loss of body weight at 25 to 75 mg/kg, po administered qd measured for 28 days", "assay_type": "organism-based", "settings": "in vivo, 672 h, dose 25-75 mg/kg, time 28 day"}, "MDA-MB-436 [31]": {"tested_on": "MDA-MB-436", "assay": "Antitumor activity against human MDA-MB-436 cells xenografted in mouse assessed as tumor growth inhibition at 75 mg/kg, po qd and measured for 28 days", "assay_type": "functional", "settings": "MDA-MB-436, po, 672 h, time 28 day, read-out: TGI"}, "MDA-MB-436 [32]": {"tested_on": "MDA-MB-436", "assay": "Antitumor activity against human MDA-MB-436 cells xenografted in mouse assessed as tumor growth inhibition at 200 mg/kg, po qd and measured for 28 days", "assay_type": "functional", "settings": "MDA-MB-436, po, 672 h, time 28 day, read-out: TGI"}, "[33]": {"assay": "In vivo Inhibition of Akt/p70S6K in mouse xenografted with human MDA-MB-436 cells assessed as reduction in S6 phosphorylation in tumor at 25 to 200 mg/kg, po measured after 4 to 8 hrs", "assay_type": "functional", "settings": "dose 25-200 mg/kg, time 4-8 hrs"}, "[34]": {"assay": "In vivo Inhibition of Akt/p70S6K in mouse xenografted with human MDA-MB-436 cells assessed as reduction in S6 phosphorylation in tumor at 200 mg/kg, po measured after 24 hrs", "assay_type": "functional", "settings": "MDA-MB-436, po"}, "[35]": {"assay": "In vivo Inhibition of Akt/p70S6K in mouse xenografted with human MDA-MB-436 cells assessed as reduction in S6 phosphorylation in tumor at 75 mg/kg, po measured after 24 hrs", "assay_type": "functional", "settings": "MDA-MB-436, po"}}}
{"molecule": "NC(=O)c1c(N)ncnc1N1CCC(c2nc(-c3ccc(F)c(C(F)(F)F)c3)cn2CCN2CCC2)CC1", "values": [{"measurement": "IC50", "setting": "Cytochrome P450 3A4", "result": "> 20", "unit": "µM"}, {"measurement": "Papp A→B", "setting": "[1]", "result": 5.3, "unit": "×10⁻⁶ cm/s"}, {"measurement": "Cmax", "setting": "[2]", "result": 13, "unit": "ng/mL"}, {"measurement": "AUC", "setting": "[3]", "result": 43.4, "unit": "ng·h/mL"}, {"measurement": "IC50", "setting": "[4]", "result": 0.003, "unit": "µM"}, {"measurement": "IC50", "setting": "[5]", "result": 0.016, "unit": "µM"}, {"measurement": "IC50", "setting": "[6]", "result": 17.4, "unit": "µM"}, {"measurement": "fraction unbound", "setting": "[7]", "result": 0.21}, {"measurement": "IC50", "setting": "Cytochrome P450 2B6", "result": "> 20", "unit": "µM"}, {"measurement": "IC50", "setting": "Cytochrome P450 2C19", "result": "> 20", "unit": "µM"}, {"measurement": "IC50", "setting": "Cytochrome P450 2D6", "result": "> 20", "unit": "µM"}, {"measurement": "microsomal CLint", "setting": "[8]", "result": 46, "unit": "µL/min/mg"}, {"measurement": "microsomal CLint", "setting": "[9]", "result": 11, "unit": "µL/min/mg"}, {"measurement": "efflux ratio", "setting": "[10]", "result": 7.9}, {"measurement": "solubility thermodynamic", "setting": "[11]", "result": 4, "unit": "µg/mL"}, {"measurement": "solubility thermodynamic", "setting": "[12]", "result": 2960, "unit": "µg/mL"}, {"measurement": "AUC", "setting": "[13]", "result": 417, "unit": "ng·h/mL"}, {"measurement": "AUC", "setting": "[14]", "result": 662, "unit": "ng·h/mL"}, {"measurement": "Cmax", "setting": "[15]", "result": 57, "unit": "ng/mL"}, {"measurement": "Cmax", "setting": "[16]", "result": 163, "unit": "ng/mL"}, {"measurement": "clearance", "setting": "[17]", "result": 25, "unit": "mL/min/kg"}, {"measurement": "bioavailability", "setting": "[18]", "result": 63, "unit": "%"}, {"measurement": "clearance", "setting": "[19]", "result": 312, "unit": "mL/min/kg"}, {"measurement": "clearance", "setting": "[20]", "result": 4.67, "unit": "mL/min/kg"}, {"measurement": "clearance", "setting": "[21]", "result": 42.8, "unit": "mL/min/kg"}, {"measurement": "half-life", "setting": "[22]", "result": 1.5, "unit": "h"}, {"measurement": "half-life", "setting": "[23]", "result": 19, "unit": "h"}, {"measurement": "half-life", "setting": "[24]", "result": 4, "unit": "h"}, {"measurement": "bioavailability", "setting": "[25]", "result": 17, "unit": "%"}, {"measurement": "bioavailability", "setting": "[26]", "result": 65, "unit": "%"}, {"measurement": "AUC", "setting": "[27]", "result": 82, "unit": "ng·h/mL"}, {"measurement": "Cmax", "setting": "[28]", "result": 9.7, "unit": "ng/mL"}, {"measurement": "Activity", "setting": "[29]", "result": "> 5", "unit": "%"}, {"measurement": "Activity", "setting": "[30]", "result": "< 5", "unit": "%"}, {"measurement": "inhibition in vivo at 75 mg/kg", "setting": "MDA-MB-436 [31]", "result": 100, "unit": "%"}, {"measurement": "inhibition in vivo at 200 mg/kg", "setting": "MDA-MB-436 [32]", "result": 98, "unit": "%"}, {"measurement": "inhibition (INH)", "setting": "[33]", "result": ">95", "unit": "%"}, {"measurement": "inhibition in vivo at 200 mg/kg", "setting": "[34]", "result": 92, "unit": "%"}, {"measurement": "inhibition in vivo at 75 mg/kg", "setting": "[35]", "result": 87, "unit": "%"}]}
